{"source": "ChEMBL document CHEMBL5724914", "about": "“Linking interpersonal differences in gut microbiota composition and drug biotransformation activity” (2024); also: call rule not given here"}
{"assay": "(§1) The drug is tested on Z-030 corresponding to mouse gut metagenome with ENA study accession number: PRJEB37062 and ENA sample accession number: ERS12561829 for biotransformation under anaerobic condition. The drug concentrations were measured over 9 timepoints collected between 0 and 24 hours of incubation by liquid-chromatography-coupled mass spectrometry (LC–MS)", "settings": "2 µM"}
{"smiles": "O=c1[nH]c2ccccc2n1CCCN1CCC(n2c(=O)[nH]c3cc(Cl)ccc32)CC1", "note": "[DOMPERIDONE]", "Bacterial Biotransformation": "Compound NOT metabolized"}
{"smiles": "C#C[C@]1(O)CC[C@H]2[C@@H]3CCC4=CC(=O)CC[C@@H]4[C@H]3CC[C@@]21CC", "note": "[LEVONORGESTREL]", "Bacterial Biotransformation": "Compound NOT metabolized"}
{"assay": "as §1, with “Z-028” for “Z-030”, “ERS12561827” for “ERS12561829”", "settings": "2 µM"}
{"smiles": "O=c1[nH]c2ccccc2n1CCCN1CCC(n2c(=O)[nH]c3cc(Cl)ccc32)CC1", "note": "[DOMPERIDONE]", "Bacterial Biotransformation": "Compound NOT metabolized"}
{"smiles": "C#C[C@]1(O)CC[C@H]2[C@@H]3CCC4=CC(=O)CC[C@@H]4[C@H]3CC[C@@]21CC", "note": "[LEVONORGESTREL]", "Bacterial Biotransformation": "Compound metabolized"}
{"assay": "as §1, with “Z-027” for “Z-030”, “to” for “to mouse gut”, “ERS12561826” for “ERS12561829”", "settings": "2 µM"}
{"smiles": "O=c1[nH]c2ccccc2n1CCCN1CCC(n2c(=O)[nH]c3cc(Cl)ccc32)CC1", "note": "[DOMPERIDONE]", "Bacterial Biotransformation": "Compound NOT metabolized"}
{"smiles": "C#C[C@]1(O)CC[C@H]2[C@@H]3CCC4=CC(=O)CC[C@@H]4[C@H]3CC[C@@]21CC", "note": "[LEVONORGESTREL]", "Bacterial Biotransformation": "Compound metabolized"}
{"assay": "as §1, with “Z-026” for “Z-030”, “to” for “to mouse gut”, “ERS12561825” for “ERS12561829”", "settings": "2 µM"}
{"smiles": "O=c1[nH]c2ccccc2n1CCCN1CCC(n2c(=O)[nH]c3cc(Cl)ccc32)CC1", "note": "[DOMPERIDONE]", "Bacterial Biotransformation": "Compound NOT metabolized"}
{"smiles": "C#C[C@]1(O)CC[C@H]2[C@@H]3CCC4=CC(=O)CC[C@@H]4[C@H]3CC[C@@]21CC", "note": "[LEVONORGESTREL]", "Bacterial Biotransformation": "Compound metabolized"}
{"assay": "as §1, with “Z-024” for “Z-030”, “pig” for “mouse”, “ERS12561823” for “ERS12561829”", "settings": "2 µM"}
{"smiles": "O=c1[nH]c2ccccc2n1CCCN1CCC(n2c(=O)[nH]c3cc(Cl)ccc32)CC1", "note": "[DOMPERIDONE]", "Bacterial Biotransformation": "Compound NOT metabolized"}
{"assay": "as §1, with “Z-020” for “Z-030”, “rabbit” for “mouse”, “ERS12561819” for “ERS12561829”", "settings": "2 µM"}
{"smiles": "O=c1[nH]c2ccccc2n1CCCN1CCC(n2c(=O)[nH]c3cc(Cl)ccc32)CC1", "note": "[DOMPERIDONE]", "Bacterial Biotransformation": "Compound NOT metabolized"}
{"smiles": "C#C[C@]1(O)CC[C@H]2[C@@H]3CCC4=CC(=O)CC[C@@H]4[C@H]3CC[C@@]21CC", "note": "[LEVONORGESTREL]", "Bacterial Biotransformation": "Compound metabolized"}
{"assay": "as §1, with “Z-010” for “Z-030”, “to” for “to mouse gut”, “ERS12561810” for “ERS12561829”", "settings": "2 µM"}
{"smiles": "O=c1[nH]c2ccccc2n1CCCN1CCC(n2c(=O)[nH]c3cc(Cl)ccc32)CC1", "note": "[DOMPERIDONE]", "Bacterial Biotransformation": "Compound NOT metabolized"}
{"assay": "as §1, with “Z-004” for “Z-030”, “to” for “to mouse gut”, “ERS12561804” for “ERS12561829”", "settings": "2 µM"}
{"smiles": "O=c1[nH]c2ccccc2n1CCCN1CCC(n2c(=O)[nH]c3cc(Cl)ccc32)CC1", "note": "[DOMPERIDONE]", "Bacterial Biotransformation": "Compound NOT metabolized"}
{"smiles": "C#C[C@]1(O)CC[C@H]2[C@@H]3CCC4=CC(=O)CC[C@@H]4[C@H]3CC[C@@]21CC", "note": "[LEVONORGESTREL]", "Bacterial Biotransformation": "Compound metabolized"}
{"assay": "as §1, with “Z-002” for “Z-030”, “rabbit” for “mouse”, “ERS12561802” for “ERS12561829”", "settings": "2 µM"}
{"smiles": "O=c1[nH]c2ccccc2n1CCCN1CCC(n2c(=O)[nH]c3cc(Cl)ccc32)CC1", "note": "[DOMPERIDONE]", "Bacterial Biotransformation": "Compound NOT metabolized"}
{"smiles": "C#C[C@]1(O)CC[C@H]2[C@@H]3CCC4=CC(=O)CC[C@@H]4[C@H]3CC[C@@]21CC", "note": "[LEVONORGESTREL]", "Bacterial Biotransformation": "Compound metabolized"}
{"assay": "as §1, with “Z-001” for “Z-030”, “ERS12561801” for “ERS12561829”", "settings": "2 µM"}
{"smiles": "O=c1[nH]c2ccccc2n1CCCN1CCC(n2c(=O)[nH]c3cc(Cl)ccc32)CC1", "note": "[DOMPERIDONE]", "Bacterial Biotransformation": "Compound NOT metabolized"}
{"smiles": "C#C[C@]1(O)CC[C@H]2[C@@H]3CCC4=CC(=O)CC[C@@H]4[C@H]3CC[C@@]21CC", "note": "[LEVONORGESTREL]", "Bacterial Biotransformation": "Compound NOT metabolized"}
{"assay": "as §1, with “WLS-370” for “Z-030”, “human” for “mouse”, “ERS12561793” for “ERS12561829”", "settings": "2 µM"}
{"smiles": "O=c1[nH]c2ccccc2n1CCCN1CCC(n2c(=O)[nH]c3cc(Cl)ccc32)CC1", "note": "[DOMPERIDONE]", "Bacterial Biotransformation": "Compound NOT metabolized"}
{"smiles": "C#C[C@]1(O)CC[C@H]2[C@@H]3CCC4=CC(=O)CC[C@@H]4[C@H]3CC[C@@]21CC", "note": "[LEVONORGESTREL]", "Bacterial Biotransformation": "Compound metabolized"}
{"assay": "as §1, with “WLS-170” for “Z-030”, “human” for “mouse”, “ERS12561762” for “ERS12561829”", "settings": "2 µM"}
{"smiles": "C#C[C@]1(O)CC[C@H]2[C@@H]3CCC4=CC(=O)CC[C@@H]4[C@H]3CC[C@@]21CC", "note": "[LEVONORGESTREL]", "Bacterial Biotransformation": "Compound metabolized"}
{"assay": "as §1, with “WLS-090” for “Z-030”, “human” for “mouse”, “ERS12561753” for “ERS12561829”", "settings": "2 µM"}
{"smiles": "O=c1[nH]c2ccccc2n1CCCN1CCC(n2c(=O)[nH]c3cc(Cl)ccc32)CC1", "note": "[DOMPERIDONE]", "Bacterial Biotransformation": "Compound NOT metabolized"}
{"smiles": "C#C[C@]1(O)CC[C@H]2[C@@H]3CCC4=CC(=O)CC[C@@H]4[C@H]3CC[C@@]21CC", "note": "[LEVONORGESTREL]", "Bacterial Biotransformation": "Compound metabolized"}
{"settings": "human gut metagenome, 24 h, 2 µM"}
{"smiles": "O=c1[nH]c2ccccc2n1CCCN1CCC(n2c(=O)[nH]c3cc(Cl)ccc32)CC1", "note": "[DOMPERIDONE]", "Bacterial Biotransformation": "Compound NOT metabolized"}
{"settings": "human gut metagenome, 24 h, 2 µM", "remark": "another data set of the same source"}
{"smiles": "O=c1[nH]c2ccccc2n1CCCN1CCC(n2c(=O)[nH]c3cc(Cl)ccc32)CC1", "note": "[DOMPERIDONE]", "Bacterial Biotransformation": "Compound NOT metabolized"}
{"smiles": "C#C[C@]1(O)CC[C@H]2[C@@H]3CCC4=CC(=O)CC[C@@H]4[C@H]3CC[C@@]21CC", "note": "[LEVONORGESTREL]", "Bacterial Biotransformation": "Compound metabolized"}
{"settings": "human gut metagenome, 24 h, 2 µM", "remark": "another data set of the same source"}
{"smiles": "O=c1[nH]c2ccccc2n1CCCN1CCC(n2c(=O)[nH]c3cc(Cl)ccc32)CC1", "note": "[DOMPERIDONE]", "Bacterial Biotransformation": "Compound NOT metabolized"}
{"smiles": "C#C[C@]1(O)CC[C@H]2[C@@H]3CCC4=CC(=O)CC[C@@H]4[C@H]3CC[C@@]21CC", "note": "[LEVONORGESTREL]", "Bacterial Biotransformation": "Compound NOT metabolized"}
{"settings": "human gut metagenome, 24 h, 2 µM", "remark": "another data set of the same source"}
{"smiles": "C#C[C@]1(O)CC[C@H]2[C@@H]3CCC4=CC(=O)CC[C@@H]4[C@H]3CC[C@@]21CC", "note": "[LEVONORGESTREL]", "Bacterial Biotransformation": "Compound metabolized"}
{"settings": "human gut metagenome, 24 h, 2 µM", "remark": "another data set of the same source"}
{"smiles": "C#C[C@]1(O)CC[C@H]2[C@@H]3CCC4=CC(=O)CC[C@@H]4[C@H]3CC[C@@]21CC", "note": "[LEVONORGESTREL]", "Bacterial Biotransformation": "Compound metabolized"}
{"settings": "human gut metagenome, 24 h, 2 µM", "remark": "another data set of the same source"}
{"smiles": "C#C[C@]1(O)CC[C@H]2[C@@H]3CCC4=CC(=O)CC[C@@H]4[C@H]3CC[C@@]21CC", "note": "[LEVONORGESTREL]", "Bacterial Biotransformation": "Compound metabolized"}
{"settings": "human gut metagenome, 24 h, 2 µM", "remark": "another data set of the same source"}
{"smiles": "O=c1[nH]c2ccccc2n1CCCN1CCC(n2c(=O)[nH]c3cc(Cl)ccc32)CC1", "note": "[DOMPERIDONE]", "Bacterial Biotransformation": "Compound NOT metabolized"}
{"smiles": "C#C[C@]1(O)CC[C@H]2[C@@H]3CCC4=CC(=O)CC[C@@H]4[C@H]3CC[C@@]21CC", "note": "[LEVONORGESTREL]", "Bacterial Biotransformation": "Compound metabolized"}
